Experimental findings from patent publication US20230322756A1, “FUSED IMIDAZOLE DERIVATIVE, PREPARATION METHOD THEREFOR, AND MEDICAL USE THEREOF” (JIANGSU HENGRUI MEDICINE CO., LTD., priority 2020, published 2023) are described below.

What is called IC50 is the midpoint of a concentration-inhibition curve. A lower IC50 goes with higher potency. What is called half-life is how long it takes for the measured level to halve.

In one series the target is CYP2C19 (Homo sapiens (Human), UniProt P33261). Kind of series: Time-dependent inhibition (TDI) of CYP2C19 (S)-mephenytoin site of metabolism in human liver microsomes. To be noted: for IC50: (S)-mephenytoin. The format is in vitro ADME. The procedure:
I. Materials and Instruments • 1. Phosphate buffered saline (20×PBS, purchased from Sangon); • 2. NADPH (ACROS, A2646-71-1); • 3. Human liver microsome (Corning Gentest, Cat No. 452161, Lot No. 905002, Donor36); • 4. ABI QTrap 4000 LC-MS System (AB Sciex); • 5. ZORBAX Extend-C18, 3×50 mm, 3.5 μm (Agilent, USA); • 6. CYP probe substrate ((S)-mephenytoin/20 μM, powder purchased from J&K Scientific Ltd., Cat No. 303768) and positive control inhibitor (ticlopidine, powder purchased from SIGMA, Cat No. T6654-1G).
A 100 mM PBS buffer was prepared. A 15 mM MgCl2 solution and a 10 mM NADPH solution were prepared using the buffer. A 0.5 mg/mL microsome solution was prepared using the 15 mM MgCl2 solution. A 30 mM stock solution was diluted with DMSO to a series of solutions I with concentrations of 30 mM, 10 mM, 3 mM, 1 mM, 0.3 mM, 0.1 mM, 0.03 mM and 0 mM, which were then 10-fold diluted with acetonitrile (ACN) and finally 50-fold diluted with phosphate-buffered solution (PBS) to obtain a series of test working solutions II (60 μM, 20 μM, 6 μM, 2 μM, 0.6 μM, 0.2 μM, 0.06 μM and 0 μM). A 20 μM working solution of (S)-mephenytoin was prepared by dilution with PBS.
The above prepared series of working solutions were well shaken and divided into 50 μL aliquots in corresponding reaction plates (+NADPH group and −NADPH group were set) in triplicate. 20 μL of the liver microsome working solution was added to each 96-well plate. 10 μL of NADPH was added to +NADPH group. The plates were incubated in a water bath at 37° C., and a timer was set on the incubation. After 30 min of incubation, the plates were taken out, and +NADPH group was supplemented with 20 μL of corresponding substrate solutions and −NADPH group with 20 μL of corresponding substrate solutions and 10 μL of NADPH. The plates were incubated in a water bath at 37° C., and a timer was set on the incubation. After 30 min of incubation, the plates were taken out, and the reactions were terminated with 250 μL of an ACN solution containing an internal standard. The plates were shaken on a shaker at 800 rpm for 10 min and centrifuged on a centrifuge at 4000 rpm for 15 min. 100 μL of supernatant and 80 μL of ultrapure water were well mixed and subjected to LC-MS/MS analysis.
In general terms: Liver microsomes are vesicles of endoplasmic reticulum, rich in cytochrome P450 enzymes.

Series [1] can be described thus: Pharmacokinetic evaluation in mice. The format is in vivo, C57 mice. As to conditions: for AUC(0-t) / half-life / Vd/F / CL/F / Cmax: female, C57, mouse, plasma; for AUC(0-t): read-out: Area under curve AUC0-t; for half-life: read-out: Half-life T½ (converted); for Vd/F: read-out: Apparent distribution volume Vz/F; for CL/F: read-out: Clearance CLz/F; for Cmax: read-out: Plasma concentration Cmax. Here is the method: The drug concentrations in the plasma of the test animals (mice) at different time points after intragastric (ig) administration/intravenous (iv) injection of the compounds of the present disclosure were determined by an LC/MS/MS method. The pharmacokinetic behavior of the compound of the present disclosure in mice was studied and its pharmacokinetic profile was evaluated.
Thirty-six C57 mice, female, evenly divided into 4 groups, purchased from Beijing Vital River Laboratory Animal Technology Co., Ltd., with animal production license number: SCXK (Shanghai) 2017-0005.
Intragastric administration: the drugs were intragastrically administered to mice at a dose of 2.0 mg/kg and a volume of 20.0 mL/kg.
Intravenous injection administration: the drugs were administered to mice by intravenous injection at a dose of 1.0 mg/kg and a volume of 10.0 mL/kg.
The blood was placed in an EDTA-K2 anticoagulation tube and centrifuged at 10,000 rpm for 1 min (4° C.), and plasma was separated out within 1 h and then stored at −80° C. before being tested. The process from blood collection to centrifugation was performed under an ice bath.
The content of the test compounds at different concentrations in plasma of mice after the administration was determined: 25 μL of plasma of mice at each time point after the administration was mixed with 200 μL of acetonitrile (containing 50 μL of a solution of internal standard camptothecin (100 ng/mL)); the mixture was vortexed for 1 min, and centrifuged for 10 min (4000 r/min), and 0.5 μL of supernatant was taken for LC/MS/MS analysis.

Series [2] can be described thus: Pharmacokinetic evaluation in dogs. The format is in vivo. To be noted: beagle dogs; for Vd/F / AUC(0-t) / CL/F / half-life / Cmax: male, dog, plasma; for Vd/F: read-out: Apparent distribution volume Vz/F; for AUC(0-t): read-out: Area under curve AUC0-t; for CL/F: read-out: Clearance CLz/F; for half-life: read-out: Half-life T½ (converted); for Cmax: read-out: Plasma concentration Cmax. Here is the method:
Dogs are the test animals. The drug concentrations in the plasma of dogs at different time points after intragastric (ig) administration/intravenous (iv) injection of the compounds of the present disclosure were determined by an LC/MS/MS method. The pharmacokinetic performance in beagles of the compounds of the present disclosure was studied and the pharmacokinetic profile thereof was evaluated.
Twelve beagle dogs, males, evenly divided into 4 groups, provided by the animal reserve bank (999M-004) of Shanghai Medicilon Inc. All animals were beagle dogs qualified for physical examination and healthy without abnormalities.
Intragastric administration: the dose was 2 mg/kg and the volume was 50.0 mL/kg.
Intravenous injection administration: the dose was 0.5 mg/kg and the volume was 20.0 mL/kg.
The blood was placed in an EDTA-K2 anticoagulation tube and centrifuged at 10,000 rpm for 5 min (4° C.), and plasma was separated out within 1 h and then stored at −80° C. before being tested. Food intake was resumed 3 h after administration.
The process from blood collection to centrifugation was performed under an ice bath.
The content of the test compounds at different concentrations in plasma of beagle dogs after the administration was determined: 10 μL of plasma of beagle dogs at each time point after the administration was mixed with 200 μL of acetonitrile (containing a solution of internal standard camptothecin (100 ng/mL)); the mixture was vortexed for 1 min, and centrifuged for 7 min (18,000 r/min), and 6 μL of supernatant was taken for LC/MS/MS analysis.

[3] abbreviates: 30 min pre-incubation with NADPH.
Setting [4] is: 30 min pre-incubation without NADPH.
[5] abbreviates: po, intragastric administration, 2 mg/kg.
The mark [6] stands for this setting: intravenous injection, 0.5 mg/kg.

CYP2C19, sequence (P33261 whole entry): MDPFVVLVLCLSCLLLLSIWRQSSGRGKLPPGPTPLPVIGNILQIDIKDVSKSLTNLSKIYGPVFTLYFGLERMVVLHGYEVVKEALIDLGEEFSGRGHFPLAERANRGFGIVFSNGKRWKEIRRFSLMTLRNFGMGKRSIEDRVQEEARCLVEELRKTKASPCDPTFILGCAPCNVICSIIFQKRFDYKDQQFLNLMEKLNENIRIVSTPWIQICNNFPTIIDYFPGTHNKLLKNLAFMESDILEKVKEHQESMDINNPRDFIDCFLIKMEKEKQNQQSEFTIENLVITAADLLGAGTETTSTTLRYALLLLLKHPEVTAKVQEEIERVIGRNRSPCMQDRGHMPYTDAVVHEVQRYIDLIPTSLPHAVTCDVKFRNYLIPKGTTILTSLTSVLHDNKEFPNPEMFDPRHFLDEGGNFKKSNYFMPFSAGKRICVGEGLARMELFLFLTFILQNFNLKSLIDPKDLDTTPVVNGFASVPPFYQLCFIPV

For `C[C@]1(c2ccc(Cl)cc2F)Oc2cccc(C3CCN(Cc4nc5ccc(C(=O)O)cc5n4C[C@@H]4CCO4)CC3)c2O1` [Positive compound 1, reference compound], the IC50 on CYP2C19 (setting [3]) was determined as 2.6 µM; against CYP2C19 (setting [4]), 6.4 µM. Besides, the IC50 shift at 30 min at CYP2C19 (probe (S)-mephenytoin, CYP2C19 (S)-mephenytoin site, read-out: IC50 shift fold) is 2.5.
Turning to `O=C(O)c1ccc2nc(CN3CCC(c4cccc5c4O[C@@H](c4ccc(Cl)cc4F)CO5)CC3)n(C[C@@H]3CCO3)c2n1` [Example 5, 2-((4-((S)-3-(4-Chloro-2-fluorophenyl)-2,3-dihydrobenzo[b][1,4]dioxan-5-yl)piperidin-1-yl)methyl)-3-((S)-oxetan-2-ylmethyl)-3H-imidazo[4,5-b]pyridine-5-carboxylic acid], in series [1] (intravenous injection, 1 mg/kg), the AUC(0-t) was found to be 2190 ng·h/mL, the half-life was 1.5 h, the “Apparent distribution volume Vz/F” value turned out to be 0.981 L/kg and the “Clearance CLz/F” value stood at 7.55 mL/min/kg. Further, in series [1] (setting [5]), the Vd/F came to 5.76 L/kg, the AUC(0-t) turned out to be 1440 ng·h/mL, the CL/F came to 23.1 mL/min/kg and the half-life was 2.9 h. Further, in series [1] (setting [5]), the Cmax was 359 ng/mL. Besides, in series [2] (setting [6]), the “Apparent distribution volume Vz/F” value was 0.448 L/kg, the “Clearance CLz/F” value came to 1.8 mL/min/kg, the AUC(0-t) was found to be 4830 ng·h/mL and the half-life is 3 h. Moreover, in series [2] (setting [6]), the Cmax was 1740 ng/mL. Also, in series [2] (setting [5]), the Vd/F worked out at 0.636 L/kg, the AUC(0-t) came to 22100 ng·h/mL, the CL/F was determined as 1.7 mL/min/kg and the half-life is 4.9 h. Moreover, in series [2] (setting [5]), the Cmax came out at 4430 ng/mL.
In turn, `O=C(O)c1ccc2nc(CN3CCC(c4cccc5c4O[C@@H](c4ccc(Cl)cc4F)CO5)CC3)n(C[C@@H]3CCO3)c2c1` [Example 4, 2-((4-((S)-3-(4-Chloro-2-fluorophenyl)-2,3-dihydrobenzo[b][1,4]dioxan-5-yl)piperidin-1-yl)methyl)-1-(((S)-oxetan-2-yl)methyl)-1H-benzo[d]imidazole-6-carboxylic acid] returned an IC50 on CYP2C19 (setting [3]) of more than 30 µM. On CYP2C19 (setting [4]), the IC50 was more than 30 µM. In series [1] (intravenous injection, 1 mg/kg), the AUC(0-t) was 1870 ng·h/mL, the half-life was 1.3 h, the “Apparent distribution volume Vz/F” value was 1.014 L/kg and the “Clearance CLz/F” value is 8.9 mL/min/kg. Besides, in series [1] (setting [5]), the Vd/F is 4.01 L/kg, the AUC(0-t) was 2250 ng·h/mL, the CL/F was 14.8 mL/min/kg and the half-life was 3.1 h. In addition, the Cmax in series [1] (setting [5]) came to 797 ng/mL. In series [2] (setting [6]), the “Apparent distribution volume Vz/F” value is 0.908 L/kg, the “Clearance CLz/F” value worked out at 1.9 mL/min/kg, the AUC(0-t) worked out at 4010 ng·h/mL and the half-life is 5.4 h. For the same compound, the Cmax in series [2] (setting [6]) worked out at 1220 ng/mL. In series [2] (setting [5]), the Vd/F was 0.713 L/kg, the AUC(0-t) amounted to 21400 ng·h/mL, the CL/F came out at 1.6 mL/min/kg and the half-life is 5.3 h. In addition, the Cmax in series [2] (setting [5]) amounted to 4040 ng/mL.
